In patent US9765087B2, “Benzimidazole derivatives” (ENANTA PHARMACEUTICALS, INC., priority 2009, dated 2017):
Like-named read-outs stand apart in the source and are kept apart here.

Experiments:
HCV 1b genotype replicon = assay: HCV replicon assay (qRT-PCR or luciferase), genotype 1b; type: cell-based; details: Hepatitis C virus
In short: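 EC50 derived either from luciferase signal in Huh-luc/neo-ET replicon cells after 72 h compound exposure (0.2% DMSO, 37 °C) or from TaqMan qRT-PCR of replicon RNA normalized to GAPDH. MTS assay assessed cytotoxicity; combinations tested in 6-point two-fold checkerboards around each EC50.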

HCV 1a genotype replicon = assay: HCV replicon assay (qRT-PCR or luciferase), genotype 1a; type: cell-based; details: Hepatitis C virus
Method: HCV replicon cell lines (kindly provided by R. Bartenschlager) isolated from colonies as described by Lohman et. al. (Lohman et al. (1999) Science 285: 110-113, expressly incorporated by reference in its entirety) and used for all experiments. The HCV replicon has the nucleic acid sequence set forth in EMBL Accession No.: AJ242651, the coding sequence of which is from nucleotides 1801 to 8406.
These cell lines were maintained at 37° C., 5% CO2, 100% relative humidity in DMEM (Cat#11965-084, Invitrogen), with 10% fetal calf serum (“FCS”, Invitrogen), 1% non-essential amino acids (Invitrogen), 1% of Glutamax (Invitrogen), 1% of 100× penicillin/streptomycin (Cat#15140-122, Invitrogen) and Geneticin (Cat#10131-027, Invitrogen) at 0.75 mg/ml or 0.5 mg/ml for 11-7 and Huh-luc/neo-ET cells, respectively.
EC50 values of single agent compounds and combinations were determined by HCV RNA detection using quantitative RT-PCR, according to the manufacturer's instructions, with a TAQMAN® One-Step RT-PCR Master Mix Reagents Kit (Cat#AB 4309169, Applied Biosystems) on an ABI Model 7500 thermocycler. The TaqMan primers used for detecting and quantifying HCV RNA were obtained from Integrated DNA Technologies. HCV RNA was normalized to GAPDH RNA levels in drug-treated cells, which is detected and quantified using the Human GAPDH Endogenous Control Mix (Applied Biosystems, AB 4310884E). Total cellular RNA is purified from 96-well plates using the RNAqueous 96 kit (Ambion, Cat# AM1812). Chemical agent cytotoxicity is evaluated using an MTS assay according to the manufacturer's directions (Promega).
Since clinical drug resistance often develops in viral infections following single agent therapies, there is a need to assess the additive, antagonistic, or synergistic properties of combination therapies. We used the HCV replicon system to assess the potential use of the compound of the present invention or in combination therapies with Interferon alpha, cyclosporine analogs and inhibitors targeting other HCV proteins. The acute effects of a single or combinations of drugs are studied in the “Huh-luc/neo-ET” replicon with each chemical agent titrated in an X or Y direction in a 6 point two-fold dilution curve centered around the EC50 of each drug. Briefly, replicon cells are seeded at 7,000 cells per well in 90 ul DMEM (without phenol red, Invitrogen Cat.#31053-036) per well with 10% FCS, 1% non-essential amino acids, 1% of Glutamax and 1% of 100× penicillin/streptomycin and incubated overnight at 37° C., 5% CO2, 100% relative humidity. 16-20 h after seeding cells, test compounds previously solubilized and titrated in dimethyl sulfoxide (“DMSO”) from each X plate and Y plate are diluted 1:100 in DMEM (without phenol red, Invitrogen Cat.#31053-036) with 10% FCS, 1% non-essential amino acids, 1% of Glutamax and 1% of 100× penicillin/streptomycin and added directly to the 96-well plate containing cells and growth medium at a 1:10 dilution for a final dilution of compound and DMSO of 1:1000 ([…] final concentration). Drug treated cells are incubated at 37° C., 5% CO2, 100% relative humidity for 72 hours before performing a luciferase assay using 100 ul per well BriteLite Plus (Perkin Elmer) according to the manufacturer's instructions. Data analysis utilizes the method published by Prichard and Shipman (Antiviral Research, 1990. 14:181-205). Using this method, the combination data are analyzed for antagonistic, additive, or synergistic combination effects across the entire combination surface created by the diluted compounds in combination.
The compounds of the present invention can be effective against the HCV 1b genotype. It should also be understood that the compounds of the present invention can inhibit multiple genotypes of HCV. In one embodiment compound of the present invention are active against the 1a, 1b, 2a, 2b, 3a, 4a, and 5a genotypes. […] EC50 ranges against HCV 1b and 1a are as follows: A>10 nM; B1-10 nM; C<1 nM.

[1] = Table 12, range class, read-out: 1b EC50 Range
[2] = Table 12, range class, read-out: 1a EC50 Range
[3] = Table 12, numeric values, read-out: 1b EC50

SMILES	EC50 (HCV 1a genotype replicon; [2]) [nM]	other results
COC(=O)N[C@@H](CC#N)C(=O)N1CCC[C@H]1c1nc(-c2ccc(C#Cc3ccc4[nH]c([C@@H]5CC6(CC6)CN5C(=O)[C@@H](NC(=O)OC)C(C)C)nc4c3)cc2)c[nH]1 [Example 621]		EC50 (HCV 1b genotype replicon; [1]): < 1 nM; EC50 (HCV 1a genotype replicon; Table 12, numeric values, read-out: 1a EC50): 0.207 nM
COC(=O)N[C@H](C(=O)N1C[C@]2(CCCO2)C[C@H]1c1ncc(-c2ccc(C#Cc3ccc4nc([C@@H]5C[C@@]6(CCCO6)CN5C(=O)[C@@H](NC(=O)OC)C(C)C)[nH]c4c3)cc2)[nH]1)C(C)C [Example 625]	< 1	EC50 (HCV 1b genotype replicon; [1]): < 1 nM
COC(=O)N[C@H](C(=O)N1CC2(CC2)C[C@H]1c1nc2cc(C#Cc3ccc(-c4c[nH]c([C@@H]5CCCN5C(=O)[C@H](NC(=O)OC)c5ccccc5)n4)cc3)ccc2[nH]1)C(C)C [Example 579]	< 1	EC50 (HCV 1b genotype replicon; [1]): < 1 nM
COC(=O)N[C@@H](C(=O)N1CC2(CC2)C[C@H]1c1ncc(-c2ccc(C#Cc3ccc4nc([C@@H]5CC6(CC6)CN5C(=O)[C@H](NC(=O)OC)c5ccccc5)[nH]c4c3)cc2)[nH]1)c1ccccc1 [Example 645]	< 1	EC50 (HCV 1b genotype replicon; [3]): 0.005 nM
COC(=O)N[C@H](C(=O)N1CC2(CC2)C[C@H]1c1nc2ccc(C#Cc3ccc(-c4cnc([C@@H]5CC6(CC6)CN5C(=O)[C@@H](NC(=O)OC)[C@@H](C)OCCF)[nH]4)cc3)cc2[nH]1)C(C)C [Example 547]	< 1	EC50 (HCV 1b genotype replicon; [3]): 0.018 nM
COC(=O)N[C@H](C(=O)N1C[C@@H](O)C[C@H]1c1nc(-c2ccc(C#Cc3ccc4[nH]c([C@@H]5C[C@@]6(CCCO6)CN5C(=O)[C@@H](NC(=O)OC)C(C)C)nc4c3)cc2)c[nH]1)C(C)C [Example 561]	< 1	EC50 (HCV 1b genotype replicon; [3]): 0.024 nM
COC(=O)N[C@H](C(=O)N1CC2(CC2)C[C@H]1c1nc(-c2ccc(-c3ccc4[nH]c([C@@H]5CC6(CC6)CN5C(=O)[C@@H](NC(=O)OC)C(C)C)nc4c3)cc2)c[nH]1)C(C)C [Example 640]	1 to 10	EC50 (HCV 1b genotype replicon; [3]): 0.03 nM
COC(=O)N[C@H](C(=O)N1CCC[C@H]1c1nc(-c2ccc(C#Cc3ccc4[nH]c([C@@H]5C[C@@]6(CCCO6)CN5C(=O)[C@@H](NC(=O)OC)C(C)C)nc4c3)cc2)c[nH]1)C(C)C [Example 551]	< 1	EC50 (HCV 1b genotype replicon; [3]): 0.013 nM
COC(=O)N[C@H](C(=O)N1CC2(CC2)C[C@H]1c1ncc(-c2ccc(C#Cc3ccc4nc([C@@H]5CC6(CC6)CN5C(=O)[C@@H](NC(=O)OC)C5CCOCC5)[nH]c4c3)cc2)[nH]1)C1CCOCC1 [Example 583]	< 1	EC50 (HCV 1b genotype replicon; [1]): < 1 nM
COC(=O)N[C@H](C(=O)N1CC2(CC2)C[C@H]1c1nc2ccc(C#Cc3ccc(-c4cnc([C@@H]5CC6(CC6)CN5C(=O)[C@@H](N)C(C)C)[nH]4)cc3)cc2[nH]1)C(C)C [Example 624]	> 10	
COC(=O)N[C@H](C(=O)N1CC2(CC2)C[C@H]1c1nc(-c2ccc(C#Cc3ccc4[nH]c([C@@H]5CC6(CC6)CN5C(=O)[C@@H](NC(=O)OC)C(C)C)nc4c3)cc2)c(-c2ccncc2)[nH]1)C(C)C [Example 593]	< 1	
COC(=O)N[C@H](C(=O)N1CC2(CC2)C[C@H]1c1ncc(-c2ccc(C#Cc3ccc4nc([C@@H]5CC6(CC6)CN5C(=O)[C@H](NC(=O)OC)c5cccc(Cl)c5)[nH]c4c3)cc2)[nH]1)C(C)C [Example 584]	< 1	
COC(=O)N[C@H](C(=O)N1CC2(CC2)C[C@H]1c1ncc(-c2ccc(C#Cc3ccc4nc([C@@H]5CC6(CC6)CN5C(=O)[C@@H](NC(=O)OC)c5ccccc5)[nH]c4c3)cc2)[nH]1)c1ccccc1 [Example 609]	1 to 10	
COC(=O)N[C@H](C(=O)N1CC2(CC2)C[C@H]1c1ncc(-c2ccc(C#Cc3ccc4nc([C@@H]5CC6(CC6)CN5C(=O)[C@H](NC(=O)OC)c5cccc(F)c5)[nH]c4c3)cc2)[nH]1)C(C)C [Example 653]	< 1	
COC(=O)N[C@H](C(=O)N1CC2(CC2)C[C@H]1c1ncc(-c2ccc(C#Cc3ccc4nc([C@@H]5CC6(CC6)CN5C(=O)[C@H](NC(=O)OC)c5ccccc5F)[nH]c4c3)cc2)[nH]1)C(C)C [Example 652]	< 1	
COC(=O)N[C@H](C(=O)N1CC2(CC2)C[C@H]1c1ncc(-c2ccc(C#Cc3ccc4nc([C@@H]5CC6(CC6)CN5C(=O)[C@@H](NC(=O)OC)[C@@H](C)OC)[nH]c4c3)cc2)[nH]1)C(C)C [Example 589]	< 1	
CC[C@H](C)[C@H](NC(=O)OC)C(=O)N1CC2(CC2)C[C@H]1c1nc2ccc(C#Cc3ccc(-c4cnc([C@@H]5CC6(CC6)CN5C(=O)[C@@H](NC(=O)OC)C(C)C)[nH]4)cc3)cc2[nH]1 [Example 587]	< 1	
COC(=O)N[C@H](C(=O)N1CC2(CC2)C[C@H]1c1ncc(-c2ccc(C#Cc3ccc4nc([C@@H]5CC6(CC6)CN5C(=O)[C@@H](N)C(C)C)[nH]c4c3)cc2)[nH]1)C(C)C [Example 556]	> 10	
COC(=O)N[C@H](C(=O)N1CC2(CC2)C[C@H]1c1ncc(-c2ccc(C#Cc3ccc4nc([C@@H]5CC6(CC6)CN5C(=O)[C@H](NC(=O)OC)c5ccccc5Cl)[nH]c4c3)cc2)[nH]1)C(C)C [Example 651]	< 1	
COC(=O)N[C@H](C(=O)N1CC2(CC2)C[C@H]1c1nc2ccc(C#Cc3ccc(-c4cnc([C@@H]5C[C@H]6C[C@H]6N5C(=O)[C@H](NC(=O)OC)c5cccc(F)c5)[nH]4)cc3)cc2[nH]1)C(C)C [Example 684]	< 1	
COC(=O)N[C@H](C(=O)N1CCC[C@H]1c1nc(-c2ccc3cc(-c4ccc5[nH]c([C@@H]6CC7(CC7)CN6C(=O)[C@@H](NC(=O)OC)C(C)C)nc5c4)cc(F)c3c2)c[nH]1)C(C)C [Example 608]	< 1	
CC[C@@H](C)[C@H](NC(=O)OC)C(=O)N1CC2(CC2)C[C@H]1c1ncc(-c2ccc(C#Cc3ccc4nc([C@@H]5CC6(CC6)CN5C(=O)[C@@H](NC(=O)OC)C(C)C)[nH]c4c3)cc2)[nH]1 [Example 606]	< 1	
COC(=O)N[C@H](C(=O)N1CC2(CC2)C[C@H]1c1ncc(-c2ccc(C#Cc3ccc4nc([C@@H]5CC6(CC6)CN5C(=O)[C@H](NC(=O)OC(C)(C)C)[C@H](C)c5ccccc5)[nH]c4c3)cc2)[nH]1)C(C)C [Example 669]	> 10	
COC(=O)N[C@H](C(=O)N1C[C@]2(CNC(=O)O2)C[C@H]1c1ncc(-c2ccc(C#Cc3ccc4nc([C@@H]5CC6(CC6)CN5C(=O)[C@@H](NC(=O)OC)C(C)C)[nH]c4c3)cc2)[nH]1)C(C)C [Example 617]		EC50 (HCV 1a genotype replicon; read-out: 1a EC50 Range, Table 12, range class): 1 to 10 nM
COC(=O)N[C@H](C(=O)N1CC2(CC2)C[C@H]1c1ncc(-c2ccc(C#Cc3ccc4nc([C@@H]5CC6(CC6)CN5C(=O)[C@H](NC(=O)OC)c5cccnc5)[nH]c4c3)cc2)[nH]1)C(C)C [Example 610]	< 1	
COC(=O)N[C@@H](CCNC(N)=O)C(=O)N1CCC[C@H]1c1nc(-c2ccc(C#Cc3ccc4[nH]c([C@@H]5CC6(CC6)CN5C(=O)[C@@H](NC(=O)OC)C(C)C)nc4c3)cc2)c[nH]1 [Example 553]	1 to 10	
COC(=O)N[C@H](C(=O)N1CC2(CC2)C[C@H]1c1ncc(-c2ccc(C#Cc3ccc4nc([C@@H]5CC6(CC6)CN5C(=O)[C@H](NC(=O)OC)c5ccsc5)[nH]c4c3)cc2)[nH]1)C(C)C [Example 581]	< 1	
